Assay [1] has as its target T1, MOS1 (Drosophila mauritiana, UniProt Q7JQ07).
T1 construct: involving the full-length Mos1 transposase (MOS1) was recently solved; made in house
Put plainly: MOS1 in vitro activities, overall statements of the discussion. The assay is classed as biochemical, D. mauritiana. As to conditions: for activity on MOS1: in vitro assays of MOS1 activities, discussion. The protocol:
(§1) In vitro transposition reactions were performed using pBC-3T3 as both the donor DNA and the target, as previously described. Briefly, the basic transposition reaction mixtures contained 10 mM Tris-HCl (pH 9), 50 mM NaCl, 20 mM MgCl2, 0.5 mM EDTA, 5% glycerol, 5 ng/ml BSA, 600 ng pBC-3T3, and 80 nM purified MBP-MOS1 (added last) in a volume of 20 µl. Inhibitors (25 or 10 µM, as specified) or DMSO (2%) were added to the reaction mixtures before the transposase. The reactions were allowed to proceed for 30 min at 30°C. After phenol-chloroform extraction and ethanol precipitation, 10% of the reaction mixture was transformed in electro-competent JM109 E. coli (2 mm cuvette, 1.5 kV in a MicroPulser™BioRad). Appropriate dilutions of each reaction mixture were plated on LB-tetracycline (12.5 µg/ml) agar and LB-chloramphenicol (80 µg/ml) agar to score the transposition rate. The transposition rate was the number of Tet^R colonies divided by the number of Chloram^R plus Tet^R colonies. Each condition was done at least three times in independent experiments.
(§2) Basic excision reaction mixtures contained 10 mM Tris-HCl (pH 9), 50 mM NaCl, 20 mM MgCl2, 0.5 mM EDTA, 0.5 mM DTT, 100 ng BSA, 600 ng of super-coiled pBC-3T3, and 80 nM MBP-MOS1 (added last) in a volume of 20 µl. Molecules (25 or 10 µM, as specified) or DMSO (2%) were added to the reaction mixtures before the transposase. The reactions were allowed to proceed at 30°C for 30 min before 2 µl of stop solution (loading buffer) were added. The reaction mixtures were then incubated at 65°C for 10 min. Each reaction was analysed by overnight electrophoresis at 2.7 V/cm on a TAE-buffered 1% agarose gel with ethidium bromide (0.3 mg/ml). After electrophoresis, the gel was photographed on a transilluminator. ImageGauge 4.22 software (Fujifilm) was used to quantify the bands. Each condition was tested at least twice.
These assays were performed using pre-cleaved 3′ITRs (PC-ITR), i.e. ITRs in the configuration expected after excision. Double-strand ITRs were obtained by annealing equimolar amounts of 70-NTS-PN (5′[…]3′) and 70-TS-PC (5′[…]3′) single-strand oligonucleotides. Prior to annealing, the transferred strand (70-TS-PC) was 5′-end labelled using T4 polynucleotide kinase (Promega) and γ-^32P-ATP following the manufacturer's instructions. Oligonucleotides were provided by Eurofins MWG Biotech (Germany) or Eurogentec (Belgium). Reaction mixtures containing 10 mM Tris-HCl (pH 9), 50 mM NaCl, 1 mM DTT, 5% glycerol, 100 ng BSA, 100 nM of labelled PC-ITR and 100 nM MBP-MOS1 in a final volume of 20 µl were incubated at 30°C for 30 min. The pBC plasmid (which contained the cat gene, a hot-spot for Mos1 insertion) was then added to 30 ng/µL along with 5 mM MgCl2. Molecules (25 or 10 µM, as specified) or DMSO (2%) were added to the reaction mixtures along with the target DNA to estimate their effect on integration. Reactions were carried out for 3 hours at 30°C. 0.1 mg/ml proteinase K and 0.1% SDS were added to stop the reaction. DNA products were purified by phenol-chloroform extraction and ethanol precipitated using standard techniques. DNA products were resuspended in DNA loading buffer, then separated onto a 1% agarose gel in 1X TAE (Tris Acetate EDTA) buffer. The gel was dried onto a nitrocellulose membrane (Hybond N+, GE Healthcare), scanned using a Storm, and analysed with ImageQuant software. Signals were quantified using ImageQuant software. Efficiency of integration was calculated as the intensity of the integration signal divided by the intensity of free target signal plus integration signal. Each condition was tested at least twice.
All molecules were also tested in in vitro assays reproducing integration and excision reactions catalysed by MOS1. […] In contrast, E-resveratrol and E-ε-viniferin glucoside, which act more specifically on HIV-1 3′processing reaction, and E-piceid and E-pterostilbene, which is more efficient on the integration reaction, were not active on MOS1.

For assay [2], the target named is T2, Mos1 transposase (MOS1) (Drosophila mauritiana, UniProt Q7JQ07).
T2 construct: involving the full-length Mos1 transposase (MOS1) was recently solved; made in house
T2 sequence (Q7JQ07 whole entry): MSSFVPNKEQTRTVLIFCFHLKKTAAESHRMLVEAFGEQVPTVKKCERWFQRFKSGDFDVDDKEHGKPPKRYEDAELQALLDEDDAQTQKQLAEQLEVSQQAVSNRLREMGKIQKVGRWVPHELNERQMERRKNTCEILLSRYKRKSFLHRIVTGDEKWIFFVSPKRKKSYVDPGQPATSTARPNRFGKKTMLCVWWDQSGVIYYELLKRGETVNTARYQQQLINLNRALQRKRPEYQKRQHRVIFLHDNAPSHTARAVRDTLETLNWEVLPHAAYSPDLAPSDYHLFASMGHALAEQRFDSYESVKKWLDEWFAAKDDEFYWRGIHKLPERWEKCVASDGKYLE
Put plainly: MOS1 in vitro excision assay. The assay is classed as biochemical, D. mauritiana. As to conditions: for inhibition at 25 µM: DMSO control as reference, read-out: inhibition of in vitro excision reaction; for IC50: concentration range, sigmoid dose-response fit. The method, then:
as §2
The ability of the selected molecules to inhibit excision was tested in vitro using the pBC-3T3 plasmid as the transposon donor. MOS1 triggers the excision of the pseudo-Mos1 from the plasmid producing two linear DNA fragments, the transposon and the plasmid backbone, together with intermediate products (open circle plasmids which contained single strand nicks and linear plasmids which contained a double strand nick at one ITR). After excision, the transposon could be reintegrated, making it difficult to detect in electrophoresis. The activity of the molecules was measured by quantifying the plasmid backbone, the end product of the reaction. The assays were performed with final concentrations of 25 and 10 µM molecules. Controls correspond to assays performed without molecule but with DMSO. […] Reactions were performed at least twice for each selected molecules (leachianol G, leachianol F, quadrangularin A, hopeaphenol, vitisin B and pallidol) and the excision activity is reported in figure 7B . […] The six selected molecules were then tested for the integration step of Mos1 transposition.

The target of assay [3] is T2, Mos1 transposase (MOS1). Put plainly: MOS1 in vitro transposition assay (genetic hop experiment). The assay is classed as biochemical, D. mauritiana. The method, then: The wild type Mos1 transposase (MOS1: 345 amino acids) was produced and purified as a fusion protein linked to the maltose-binding protein by using the pMal-c2 system (New England Biolabs) and following the manufacturer's instructions.
as §1
To identify the natural stilbenes active on MOS1, the 17 molecules were tested using an in vitro genetic “hop” experiment, which is the most sensitive test available as yet. Purified MOS1 was incubated with the pBC-3T3 plasmid, which was used both as the transposon donor and the target plasmid. This plasmid contains the pBR322 tetracycline resistance gene (without promoter) framed by two Mos1 ITRs. This reconstitutes a pseudo-Mos1 element named 3T3. We took advantage of the fact that the cat gene (present in the pBC backbone) is a hotspot for Mos1 integration. […] Transposition events were recovered by bacterial transformation with selection for tetracycline resistance, as a gain-of-function landmark for transposition. […] Controls correspond to assays performed without molecule but with DMSO, which is routinely used as the solvent. […] To confirm the efficiency of the six molecules, they were similarly assayed at 10 µM ( figure 6B ). Since they appeared to be still active at 10 µM, they were further characterized in order to identify the targeted step of the transposition cycle.

Assay [4] addresses HIV-1 IN (Human immunodeficiency virus type 1 group M subtype B, UniProt P04585). The assay can be described thus: HIV-1 IN in vitro concerted integration assay (processed or unprocessed donor DNA).

2 molecules from PMC3842960, “Natural Stilbenoids Isolated from Grapevine Exhibiting Inhibitory Effects against HIV-1 Integrase and Eukaryote MOS1 Transposase In Vitro Activities” (PLoS ONE, 2013) can be followed below.

Structures are written as SMILES.

T1 sequence (Q7JQ07 whole entry): as above

In general, IC50 refers to the concentration needed to halve the response being measured. A high value points to weaker potency in that assay. Regarding `Oc1ccc([C@@H]2c3c(O)cc(O)cc3[C@H]3c4c(cc(O)cc4C2C2c4cc(O)cc5c4[C@H](c4cc(O)cc(O)c4[C@H]2c2ccc(O)cc2)[C@@H](c2ccc(O)cc2)O5)O[C@@H]3c2ccc(O)cc2)cc1` (stereo partly shown) [hopeaphenol], the “activity on MOS1” value in assay [1] is “selectively active on MOS1”. In addition, the results for the IC50 in assay [1] (summary of the discussion) and in assay [2] were 6 to 8 µM and 8.5 µM, respectively. Besides, the inhibition at 25 µM in assay [2] is more than 50%. In addition, the “activity against MOS1 in transposition assay” value in assay [3] (10 µM) is recorded as “still active”; in assay [3] (25 µM) it was “active against MOS1”. For the same molecule, the inhibition at 10 µM in assay [4] (read-out: inhibition of concerted integration) was less than 5%.
In the case of `Oc1ccc([C@@H]2c3c(O)cc(O)cc3[C@H]3[C@H](c4ccc(O)cc4)c4c(O)cc(O)cc4[C@@H]23)cc1` [pallidol], the “activity on MOS1” value in assay [1] was “also active against MOS1 activities”. For the same molecule, the inhibition at 25 µM in assay [2] was more than 50%. Besides, the IC50 in assay [2] came out at 8 µM. Moreover, the “activity against MOS1 in transposition assay” value in assay [3] (10 µM) was “still active”; in assay [3] (25 µM), “active against MOS1”. Besides, in assay [4] (increasing concentrations), the “inhibition of concerted integration from processed and unprocessed donor” value was “inhibited both activities”.
